Test results: paper PMC4434572, “Identification of novel drugs to target dormant micrometastases” (BMC Cancer, 2015)
Where two headings read alike, the source gives them in different places.

Legend:
PC-3 (prostate) = experiment: Proliferation EC50 on SISgel vs monolayer; format: cell-based; details: n = 6-8
From the text: (§1) The libraries were obtained from the NCI (Diversity Library I) comprised of 2,918 compounds and a 10,000 compound diversity library from ChemBridge, Inc. (DiverSet-EXP). The NCI library is no longer available in the form used here, but how it was constructed is described (http://dtp.nci.nih.gov/branches/dscb/diversity_explanation.html). The ChemBridge library is a subset (Set Code NM1024) of the full 50,000 compound library (http://www.chembridge.com/screening_libraries/diversity_libraries/). Compounds were diluted to 100 μM before use. SISgel was prepared as described previously from powdered porcine small intestine submucosa obtained from Cook Biotech (W. Lafayette, IN). It is a natural product that is used extensively in tissue engineering as a bioscaffold. J82 bladder cancer cells and other cell lines were obtained from the ATCC (Bethesda, MD). The basic principle is that cells grown on any ECM are, in general, expected to show higher resistance to anticancer compounds than when grown on plastic. Therefore, compounds that show a higher activity toward cancer cells on a normal ECM than on a plastic surface would be candidates to target suppressed, micrometastatic cells. Efficacy in vitro was assessed by plating 30,000 cells in 50 μL of high glucose DMEM with penicillin-streptomycin and 10 % fetal calf serum on SISgel in a 96-well plate containing 50 μL of gelled SISgel per well. Cells were allowed to attach and assume the SISgel phenotype for 48 h. A matching plate without SISgel was prepared 24 h later by pipetting 3,000 cells in 100 μL of high glucose DMEM with penicillin-streptomycin and 10 % fetal calf serum into each well of 96 well plate. The cells were allowed to attach and grow for 24 h. These numbers of cells gave approximately equal replication rates at the time drug was added for cells grown on the plastic surface or SISgel as determined by the fraction of S-phase cells identified by flow cytometry. The cells were exposed to drug in fresh medium for 48 h, at which time the cell number was determined using the CFDA-AM cellular esterase proliferation assay (cat. #C1354, Life Technologies). For screening the results are reported as the ratio of cell count of cells on the plastic surface to the cell count on SISgel. An initial difference of 1.5 fold identified potential hits. All potential hits were confirmed in triplicate. Those compounds that replicated were confirmed by a full dose–response study yielding an EC50 using five wells per drug concentration. Data were analyzed using nonlinear regression to a sigmoid curve with Prism 4 (GraphPad Software, Inc., LaJolla, CA). Potential hits that were confirmed by dose–response using J82 were also tested with MDA-MB-435 breast cancer, PC-3 metastatic prostate cancer, Capan1 pancreatic cancer and the J82 bladder cancer cell lines.

MDA-MB-435 cells [1] = experiment: Proliferation (CFDA-AM esterase assay) of cells grown on SISgel, plastic or Matrigel, 48 h drug exposure; format: cell-based; details: for SI (EC50-P/EC50-S): ratio of EC50 on plastic versus SISgel
From the text: as §1

MDA-MB-231 (breast) = experiment: Proliferation EC50 on SISgel vs monolayer; format: cell-based; details: n = 6-8
4T1 parental cells = experiment: EC50 on parental 4T1 cell line grown on plastic surface; format: cell-based, mouse
Experimental: Because cancer stem cells are highly resistant to conventional chemotherapy and are thought to initiate tumors, the activity of the DT series of drugs was also checked against cancer stem cells obtained from the 4T1 line. […] For comparison the EC50 values of DT310, DT320, and doxorubicin were determined in 4T1 parental cells plated on plastic. Because this assay targeting stem cells was performed in suspension culture, we also tested whether SISgel differentiated the stem cells. As indicated by the presence of pluripotency markers (Nanog, Sox2, Oct4), the cells retained their pluripotency markers on SISgel (Fig. 5). […] The 4T1 stem cells could not be tested on Matrigel or on plastic because they differentiate and are therefore no longer stem cells. 4T1 cancer stem cells were much more sensitive to the DT agents, particularly to DT320, than to conventional chemotherapeutic drugs.

[2] = test system: cancer cells on SISgel or plastic; experiment: Activity of leads and analogs on cancer cells grown on plastic vs SISgel (cell line not stated); format: cell-based; details: for Hit: YES/NO; for SR: ratio IC50-p/IC50-S
Procedure, shortened: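 Cells on SISgel (30,000/well, 48 h attachment) or plastic (3,000/well, 24 h) were exposed to compound (diluted to 100 μM) for 48 h in high-glucose DMEM with 10 % FCS. Cell number quantified by CFDA-AM esterase assay; results given as plastic:SISgel cell-count ratio, hits confirmed in triplicate, curves fitted sigmoidally.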

U251 (glioblastoma) = experiment: Proliferation EC50 on Matrigel vs SISgel; format: cell-based
Capan-1 (pancreatic) = experiment: Proliferation EC50 on SISgel vs monolayer; format: cell-based; details: n = 6-8
From the text: as §1

J82 (bladder) = experiment: Proliferation EC50 on SISgel vs monolayer; format: cell-based; details: n = 6-8
From the text: as §1

mice = experiment: Toxicity / maximum tolerated dose in mice; details: for NOAEL dose, osmotic pump: Alzet #2004 osmotic pump, 4 weeks; for MTD / toxicity in mice: mice
MDA-MB-435 cells [3] = experiment: Proliferation (CFDA-AM esterase assay) of cells grown on SISgel, plastic or Matrigel, 48 h drug exposure; format: cell-based; details: MDA-MB-435 grown on Matrigel (fully malignant phenotype)
[4] = PC-3 monolayer, read-out: EC50 Monolayer
[5] = PC-3 on SISgel, read-out: EC50 SISgel
[6] = cells on SISgel, read-out: IC50-S
[7] = cells on plastic, read-out: IC50-p
[8] = MDA-MB-435 cells on SISgel, read-out: EC50-S
[9] = MDA-MB-435 cells on plastic, read-out: EC50-P

**Q.** `COc1cccc2c1C(=O)c1c(O)c3c(c(O)c1C2=O)C[C@@](O)(C(=O)CO)C[C@@H]3O[C@H]1C[C@H](N)[C@H](O)[C@H](C)O1` [Doxorubicin, reference compound] was tested. Which EC50 (PC-3 (prostate); [4]) did it give?
**A.** Its EC50 is 104 ± 6.1 µM.

**Q.** What about the EC50 (PC-3 (prostate); [5]) of the same compound?
**A.** Its EC50 is 102 ± 7 µM.

**Q.** And the EC50 (MDA-MB-435 cells [1]; Homo sapiens, MDA-MB-435 cells on SISgel, read-out: EC50-S)?
**A.** Its EC50 is 45.4 µM.

**Q.** What about the EC50 (MDA-MB-435 cells [1]; Homo sapiens, MDA-MB-435 cells on plastic, read-out: EC50-P) of the same compound?
**A.** Its EC50 is 47.8 µM.

**Q.** And the “SI (EC50-P/EC50-S)” value (MDA-MB-435 cells [1])?
**A.** Its value is 1.05.

**Q.** What about the EC50 (MDA-MB-231 (breast); Homo sapiens, MDA-MB-231 monolayer, read-out: EC50 Monolayer) of the same compound?
**A.** The EC50 was 45.4 ± 1.9 µM.

**Q.** What about the EC50 (MDA-MB-231 (breast); Homo sapiens, MDA-MB-231 on SISgel, read-out: EC50 SISgel) of the same compound?
**A.** The EC50 was 47.8 ± 4 µM.

**Q.** What about the EC50 (4T1 parental cells; Mus musculus, 4T1) of the same compound?
**A.** Its EC50 is 4.7 µM.

**Q.** Which results are given for `O=S(=O)([O-])c1cc(O)c2c(O)c(N=Nc3cccc4ccccc34)c(S(=O)(=O)[O-])cc2c1.[Na+].[Na+]` [DT320, 4,5-Dihydroxy-3-(1-naphthalenylazo)-2,7-naphthalenedisulfonic acid disodium salt]?
**A.** Hit [2]: YES; IC50 [2, 6]: 9 µM; IC50 [2, 7]: 78 µM; SR [2]: 9.0; Ratio (U251 (glioblastoma); Matrigel/SISgel EC50, U251): 1.5; EC50 (U251 (glioblastoma); U251 on Matrigel, read-out: EC50 Matrigel): 95 µM; EC50 (U251 (glioblastoma); U251 on SISgel, read-out: EC50 SISgel): 64.6 µM; EC50 (PC-3 (prostate); [4]): 41.5 ± 4.1 µM; EC50 (PC-3 (prostate); [5]): 19.7 ± 2 µM; EC50 (Capan-1 (pancreatic); Capan-1 monolayer, read-out: EC50 Monolayer): 80.1 ± 10.2 µM; EC50 (Capan-1 (pancreatic); Capan-1 on SISgel, read-out: EC50 SISgel): 22.9 ± 4.8 µM; EC50 (J82 (bladder); J82 monolayer, read-out: EC50 Monolayer): 71.2 ± 8.1 µM; EC50 (J82 (bladder); J82 on SISgel, read-out: EC50 SISgel): 30.9 ± 4.8 µM; NOAEL dose, osmotic pump (mice): 26.7 µg/h; MTD (mice): 75 mg/kg; toxicity in mice (mice): very low toxicity; EC50 (MDA-MB-435 cells [1]; [8]): 8.7 µM; EC50 (MDA-MB-435 cells [1]; [9]): 78 µM; Ratio (MDA-MB-435 cells [1]; Matrigel/SISgel EC50, MDA-MB-435): 2.4; SI (EC50-P/EC50-S) (MDA-MB-435 cells [1]): 9.0; EC50 (MDA-MB-435 cells [3]): 48.2 µM; EC50 (MDA-MB-231 (breast); MDA-MB-231 monolayer, read-out: EC50 Monolayer): 78.1 ± 7.1 µM; EC50 (MDA-MB-231 (breast); MDA-MB-231 on SISgel, read-out: EC50 SISgel): 8.7 ± 1.1 µM; EC50 (4T1 parental cells; plastic surface): 19.7 µM

**Q.** `O=S(=O)([O-])c1ccc2c(N=Nc3cccc4ccccc34)c(O)c(S(=O)(=O)[O-])cc2c1.[Na+].[Na+]` [DT310, 4-(1-naphthalenylhydrazinylidene) -3-oxonaphthalene-2,7-disulfonic acid] was tested. Which Hit [2] did it give?
**A.** Its Hit is “YES”.

**Q.** And the IC50 [2, 6]?
**A.** The IC50 was 36 µM.

**Q.** What about the IC50 [2, 7] of the same compound?
**A.** The IC50 was 87 µM.

**Q.** What about the SR [2] of the same compound?
**A.** Its SR is 2.4.

**Q.** And the “NOAEL dose, osmotic pump” value (mice)?
**A.** Its value is 23.4 µg/h.

**Q.** What about the MTD (mice) of the same compound?
**A.** Its MTD is 65 mg/kg.

**Q.** What about the “toxicity in mice” value (mice) of the same compound?
**A.** The value was “very low toxicity”.

**Q.** What about the EC50 (MDA-MB-435 cells [1]; [8]) of the same compound?
**A.** Its EC50 is 35.9 µM.

**Q.** What about the EC50 (MDA-MB-435 cells [1]; [9]) of the same compound?
**A.** The EC50 was 86.5 µM.

**Q.** What about the “SI (EC50-P/EC50-S)” value (MDA-MB-435 cells [1]) of the same compound?
**A.** Its value is 2.4.

**Q.** And the EC50 (4T1 parental cells; plastic surface)?
**A.** Its EC50 is 14.4 µM.
